Measurements: patent US9034857B2 (Health Research, Inc., priority 2010, dated 2015)
“Also recorded” adds a separate entry of the source. Read-outs that look alike come from different tables or passages of the source.

Columns and labels:
[1] = tested on: O2- in stationary phase cells; test: Levels of O2- detected by DHE fluorescence in stationary phase cells; assay type: cell-based, Saccharomyces cerevisiae; settings: for Superoxide anions: Table 2 summary, stationary phase
Method: The following materials and methods were used to obtain the data presented in this Example. To assess CLS 50 ml cultures were inoculated with 1% (v/v) of a fresh overnight culture in either SC or YPD. SC was supplemented using known techniques. In experiments that employed media that initially contained 10% glucose, control 2% glucose cultures also contained 8% sorbitol to maintain equivalent osmolarity. Determination of chronological life span, fraction of budded cells, flow cytometry measurements of DNA content and measurements of dihydroethidium (DHE) and dihydrorhodamine 123 (DHR) were used according to standard methods. N-acetylcysteine (NAC) and glutathione (GSH) were dissolved in growth medium, filter sterilized and added to cultures from 100 mM (NAC) or 250 mM (GSH) stocks at the start of experiments. Propidium iodide (PI) was used to assess viability of cells by mixing a 2 μl of cells with an equal volume of 1 mM PI on a microscope slide and examining the slide with a fluorescence microscope equipped with a Texas Red filter. Non-fluorescent cells were scored as intact (live) and fluorescent cells were scored as dead. The total number of cells in cultures was determined by particle counts using a Petroff Hauser counting chamber. Samples for transmission electron microscopy were prepared using standard methods. Briefly, cells cultured at 30° C. in YPD medium for 3 to 5 days were harvested by gentle centrifugation, washed in phosphate buffered saline (PBS) (pH=7.2), resuspended in 2.5% (v/v) glutaraldehyde in PBS and fixed for 40 min at room temperature. Cells were further fixed by 2% freshly prepared potassium permanganate in water for 1 hour at room temperature. Fixed cells were dehydrated with 30%, 50%, 75%, 85%, 95%, and 100% ethanol. Cells were transitioned with propylene oxide, infiltrated in Spurr resin (Electron Microscopy Sciences, PA). Resin was polymerized at 65° C. overnight in the oven. 60 nm ultrathin sections were cut with a diamond knife, stained with 2% uranyl acetate and lead citrate and examined using a Hitachi H-7000 electron microscope, equipped with a 4K×4K cooled CCD digital camera (Gatan, Inc., CA). Values presented in graphs that contain error bars represent means and standard deviations from three or more independent experiments. Other results are representative of at least three independent experiments. Statistical analyses were performed using Student's t-test. P<0.05 was considered statistically significant.

[2] = tested on: intracellular O2- in stationary phase budding yeast cells; test: High throughput flow cytometry DHE screen for reduction of superoxide in stationary phase budding yeast; assay type: cell-based, S. cerevisiae
[3] = tested on: interleukin-6 release from human macrophages; test: Interleukin-6 release from human macrophages; assay type: cell-based
Saccharomyces cerevisiae = test: Chronological lifespan (CLS) of budding yeast; assay type: cell-based
mammalian cells = settings: cited from earlier work
budding yeast = settings: cited from earlier work
ribonucleotide reductase = settings: low levels of hydroxyurea; cited from earlier work

N[C@@H](CCC(=O)N[C@@H](CS)C(=O)NCC(=O)O)C(=O)O [GSH, glutathione]
Superoxide anions [1]: ↓ | levels of O2- (DHE fluorescence) ([1]; wild type cells, day 3 of medium depletion): reduced levels of O2-

Cc1ccc(-c2nn(C(C)(C)C)c3ncnc(N)c23)cc1 [MLS000326642, 1-tert-butyl-3-(4-methylphenyl)pyrazolo[3,4-d]pyrimidin-4-amine]
dose dependency in re-screening (reduction of superoxide, DHE) [2]: identified by dose dependency; also recorded: exhibited dose dependency | reducing superoxide anions in S. cerevisiae [2]: reducing superoxide anions | inhibition of interleukin-6 release [3]: inhibit interleukin-6 release

c1ccc2nc3cc4[nH]cnc4cc3nc2c1 [MLS000700045, 1H-imidazo[4,5-b]phenazine]
reducing superoxide anions in S. cerevisiae [2]: reducing superoxide anions | dose dependency in re-screening (reduction of superoxide, DHE) ([2]; dose response assays from 0.004 uM to 30 uM, 7 day incubation, 7% glucose): identified by dose dependency; also recorded: exhibited dose dependency | inhibition of interleukin-6 release [3]: inhibit interleukin-6 release

CC(=O)N[C@@H](CS)C(=O)O [N-acetylcysteine]
chronological lifespan (CLS) (Saccharomyces cerevisiae; sch9Δ cells): not sch9Δ cells | chronological lifespan (CLS) (Saccharomyces cerevisiae; wild type cells, listed as NAC): shortened CLS in a dose-dependent fashion; also recorded: shorten CLS | levels of O2- (DHE fluorescence) [1]: absent | Superoxide anions [1]: ↑ | levels of O2- (DHE fluorescence) ([1]; wild type cells, day 3 of medium depletion, listed as NAC): dose-dependent increases; also recorded: elevate O2- levels | induction of O2- (mammalian cells): induction of O2-

O=C(Nc1ccccc1-c1cn2c(CN3CCNCC3)csc2n1)c1cnc2ccccc2n1 [SRT1720, reference compound]
reducing superoxide anions in S. cerevisiae [2]: reducing superoxide anions | inhibition of interleukin-6 release [3]: inhibit interleukin-6 release

COC1=C(OC)C(=O)C(C/C=C(\C)CC/C=C(\C)CC/C=C(\C)CC/C=C(\C)CC/C=C(\C)CC/C=C(\C)CC/C=C(\C)CC/C=C(\C)CC/C=C(\C)CCC=C(C)C)=C(C)C1=O [coenzyme Q10]
pro-oxidant effects (budding yeast): pro-oxidant effects

NC(=O)NO [hydroxyurea]
shortening of CLS (ribonucleotide reductase): 20-27%

Cc1c(C)c2c(c(C)c1O)CC[C@@](C)(CCC[C@H](C)CCC[C@H](C)CCCC(C)C)O2 [α-tocopherol]
pro-oxidant effects (budding yeast): pro-oxidant effects
